In paper PMC6270263, “Factors Influencing the Antifolate Activity of Synthetic Tea-Derived Catechins” (Molecules, 2013):
Where two headings read alike, the source gives them in different places.

Key:
[1] = tested on: SK-MEL-28 melanoma cell line; test: MTT cell proliferation assay in melanoma cells; assay type: cell-based, human; details: SK-MEL-28, after 6 days of treatment, read-out: Half-maximal inhibitory concentration (IC50)
Description: Antifolate compounds are designed to inhibit DHFR and act specifically during DNA and RNA synthesis, making them more toxic to rapidly dividing cells. Recent evidences indicate that tea-catechins and derived compounds could inhibit DHFR and block the folate cycle in cancer cells. Although inhibition of DHFR by these compounds could be a plausible explanation for their antifolate activity, the possibility of these compounds targeting (folate)-enzymes other than DHFR could not be excluded. To determine whether these newly synthetized compounds disrupt the folate cycle in cell culture, we studied their antiproliferative activity in the melanoma cell line SK-MEL-28 (Table 3). Concentration- and time-dependent effects were analyzed using the colorimetric 4,5-(3)-dimethylthiazol-2-yl)-2,5-diphenyltetrazolium bromide (MTT) method.
The human melanoma cell line SK-MEL-28 was obtained from American Type Culture Collection (ATCC, Manassas, VA, USA) and was maintained in Eagles’s Minimum Essential Medium (EMEM) supplemented with 10% (v/v) FBS and antibiotics at 37 °C in a humidified atmosphere containing 7.5% CO2. Cell viability was evaluated using the MTT cell proliferation assay. Cells were evaluated for apoptosis using a cell death detection ELISA (Cell Death Detection ELISAPLUS, Roche Diagnostics, Barcelona, Spain). The principle of this test is the detection of mono- and oligonucleosomes in the cytoplasmic fractions of cell lysates using biotinylated anti-histone and peroxidase-coupled anti-DNA antibodies. The amount of nucleosomes is photometrically quantified at 405 nm by the peroxidase activity retained in the immunocomplexes. Apoptosis was defined as the specific enrichment of mono- and oligonucleosomes in the cytoplasm and was calculated by dividing the absorbance of treated samples with the absorbance of untreated samples after correcting for the number of cells. The induction of apoptosis in each melanoma cell line after a 7 h treatment with 2 μM staurosporin (100% apoptotic cells) was used to calculate the number of apoptotic cells. For these assays, cells were plated in a 96-well plate at a density of 1000–2000 cells/well. Compounds were added once at the beginning of the experiments.

[2] = target: T1, free recombinant human DHFR (rHDHFR) (Homo sapiens, UniProt P00374); test: Binding of polyphenols to free rHDHFR by fluorescence quenching titration
T1 construct: made in house; host or cells: Bombyx mori chrysalides
T1 sequence (P00374 1-187): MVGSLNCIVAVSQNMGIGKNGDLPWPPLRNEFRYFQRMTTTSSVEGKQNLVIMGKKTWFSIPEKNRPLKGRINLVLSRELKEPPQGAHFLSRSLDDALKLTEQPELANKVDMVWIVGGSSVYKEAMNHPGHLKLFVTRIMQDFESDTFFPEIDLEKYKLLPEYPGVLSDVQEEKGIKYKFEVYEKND
Procedure: Natural and synthetic derivatives of tea catechins have shown to be good inhibitors of human DHFR [7, 11, 16, 18]. To determine the ability of natural and synthetic polyphenols to bind DHFR, we performed a structure-activity study by analyzing the binding of these polyphenols to DHFR using fluorescence quenching. Effective binding to free recombinant human DHFR (rHDHFR) was determined by measuring the decrease in enzyme fluorescence that occurs upon the formation of the enzyme-inhibitor complex. […] The dissociation constants of the synthetic compounds were on the same order as those of the natural analogues, indicating the high DHFR binding capacities of these new derivatives.
The dissociation constants for the binding of polyphenols to free recombinant human DHFR (rHDHFR) were determined by fluorescence titration in an automatic-scanning FluoroMax-3 (Jobin Ybon, Horiba, Edison, NJ, USA) spectrofluorometer with 1.0 cm light path cells and a 150 W mercury-xenon light source. The formation of a binary complex between the enzyme (2.5 × 10^−7 M) and the ligand (from 0 to 40 µM) was followed by measuring the quenching of the tryptophan fluorescence of the enzyme upon the addition of microliter volumes of a concentrated stock solution of ligand. Experiments were performed at pH 7.5 in a buffer containing 2-(N-morpholino)ethanesulfonic acid (Mes, 0.025 M), sodium acetate (0.025 M), tris(hydroxymethyl)aminomethane (Tris 0.05 M), and NaCl (0.1 M). The temperature was controlled at 25 °C using a Haake D1G circulating bath with a heater and cooler. Fluorescence emission spectra were recorded when the human DHFR fluorescence was excited at 290 nm, and titrations were performed as described elsewhere.

[3] = UV-visible absorption spectra at different pH (ionization state); assay type: physicochemical; details: for Effect of pH on absorption spectra: UV-visible spectra, pH range 5.0–9.0 for TMCG and TMECG
Procedure: It has been shown that the protonation state of methotrexate, trimethoprim, and pyrimethamine modulates the binding of these antifolates to DHFRs from several sources. […] The absorbance maximum at 278 nm undergoes a bathochromic displacement to 328 nm, which is greatest at alkaline pH (pH > 9.0).
To determine if the spectral changes in the SYCG and SYECG solutions with pH were due to an irreversible oxidation reaction or to a reversible protonation step, a pH titration experiment was carried out. An alkaline solution of SYCG and SYECG (pH 8.5) was acidified to pH 2.5 by the addition of dilute HCl. A change in the spectra was observed, indicating a reversible protonation reaction. The spectral changes with pH observed in SYCG and SYECG can be attributed to the hydroxyl group para on the ester-bonded gallate moiety. At acidic pH, these derivatives are mainly present as protonated species, whereas at basic pH or values near neutrality, these derivatives evolve toward the deprotonated species, which are stabilized by resonance (Scheme 3). […] As described, an important factor that decreases catechin bioavailability might be their inability to easily cross cellular membranes by passive diffusion. The presence of several hydroxyl groups in these molecules gives them a high hydrophilic character, which increases the difficulty of passing across lipid membranes.
Ultraviolet-visible absorption spectra of catechins at different pHs were recorded on a UV-Vis Perkin-Elmer Lambda-2 spectrophotometer with a spectral bandwidth of 1 nm at a scan speed of 60 nm s^−1. The experiments were performed in the same buffer as described for DHFR binding studies, and the ionic strength remained constant at an optimum value of 0.15 over the pH range that was used. The pH of the reaction was measured before and after the experiment.

[4] = target: T2, human serum albumin (HSA) (Homo sapiens, UniProt P02768); test: HSA binding by fluorescence quenching
T2 construct: purchased Sigma-Aldrich
T2 sequence (P02768 25-609): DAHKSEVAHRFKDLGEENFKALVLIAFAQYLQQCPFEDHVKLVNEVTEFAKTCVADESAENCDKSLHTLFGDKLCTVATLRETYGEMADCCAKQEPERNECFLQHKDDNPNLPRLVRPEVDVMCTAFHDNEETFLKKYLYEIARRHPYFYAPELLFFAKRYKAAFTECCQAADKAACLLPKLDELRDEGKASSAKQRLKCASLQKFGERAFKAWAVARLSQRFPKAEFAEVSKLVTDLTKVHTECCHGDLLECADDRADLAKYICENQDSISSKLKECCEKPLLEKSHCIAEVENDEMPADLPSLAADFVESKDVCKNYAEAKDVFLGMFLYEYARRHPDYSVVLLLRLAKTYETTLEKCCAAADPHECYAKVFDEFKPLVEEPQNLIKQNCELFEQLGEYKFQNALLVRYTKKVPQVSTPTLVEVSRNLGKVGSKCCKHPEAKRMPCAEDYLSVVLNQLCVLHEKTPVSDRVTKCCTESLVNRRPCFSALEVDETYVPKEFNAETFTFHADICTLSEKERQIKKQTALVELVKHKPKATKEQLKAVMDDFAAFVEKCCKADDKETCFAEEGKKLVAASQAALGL
Procedure: Fluorescence measurements were made on an automatic scanning Perkin-Elmer LS50B spectrofluorometer with 1.0 cm light path cells equipped with a 150 W xenon (XBO) light source. […] A plot of log (F0-F)/F against log [Q] was used to determine the values of KA and n from the intercept and the slope, respectively. Binding of TMECG, EGCG, and EC to HSA was determined as specified for the BSA binding studies.

[5] = target: T3, bovine serum albumin (BSA) (Bos taurus, UniProt P02769); test: BSA binding by fluorescence quenching
T3 construct: purchased Sigma-Aldrich
T3 sequence (P02769 25-607): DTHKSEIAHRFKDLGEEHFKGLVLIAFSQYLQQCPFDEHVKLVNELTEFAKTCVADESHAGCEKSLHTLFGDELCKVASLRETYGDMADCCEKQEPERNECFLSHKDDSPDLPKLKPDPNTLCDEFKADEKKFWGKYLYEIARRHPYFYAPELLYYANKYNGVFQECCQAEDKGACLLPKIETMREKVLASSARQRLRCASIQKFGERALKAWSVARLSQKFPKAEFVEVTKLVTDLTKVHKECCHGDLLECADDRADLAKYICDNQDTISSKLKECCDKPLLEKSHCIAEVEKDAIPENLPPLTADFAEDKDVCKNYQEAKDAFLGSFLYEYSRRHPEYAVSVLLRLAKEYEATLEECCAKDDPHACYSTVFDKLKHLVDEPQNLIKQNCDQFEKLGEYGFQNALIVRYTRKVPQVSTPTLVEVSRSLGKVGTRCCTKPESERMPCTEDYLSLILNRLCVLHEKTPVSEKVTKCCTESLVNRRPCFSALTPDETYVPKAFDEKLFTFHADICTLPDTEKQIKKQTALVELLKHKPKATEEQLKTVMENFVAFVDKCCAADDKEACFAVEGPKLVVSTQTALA
Description: Upon progressive additions of various concentrations of EGCG and TMCG to BSA, the emission intensity decreases, as shown in Figure 4(a). The quenching of the fluorescence intensity of BSA implies that the catechins bind at close proximity to the tryptophan and tyrosine residues and that the molecular arrangement of BSA is affected by the interactions. […] The binding constants (KA) for the BSA-EGCG and BSA-TMCG complexes are 1.54 × 10^7 M^−1 and 1.9 × 10^5 M^−1, respectively (Table 4), and their plots are shown in Figure 4(b). […] In light of these findings, it can be reasoned that the binding affinity to BSA is higher for the galloylated catechin than for the methylated one, which emphasises that the three phenolic groups can enhance hydrogen bonding between BSA and EGCG [25].
Fluorescence measurements were made on an automatic scanning Perkin-Elmer LS50B spectrofluorometer with 1.0 cm light path cells equipped with a 150 W xenon (XBO) light source. In all experiments, the fluorescence of BSA (5 × 10^−6 M) in 50 mM phosphate buffer of pH 7.5 was followed by excitation at 280 nm. The binding affinities of EGCG and TMCG with BSA in terms of binding constants were determined using the following equation [25]: log (F0−F)/F = log KA + n log [Q](1) where KA is the binding constant, n is the number of binding sites, F0 is the fluorescence intensity of free BSA and F is the consequent fluorescence upon the addition of catechins (Q). A plot of log (F0-F)/F against log [Q] was used to determine the values of KA and n from the intercept and the slope, respectively.

[6] = target: T3, bovine serum albumin (BSA); test: Competitive site-marker (warfarin, ibuprofen) binding to BSA; details: for Kd: Binding constant (KA), BSA, 25 °C
Procedure: Next, the site selective binding of both EGCG and TMCG to BSA was analyzed. The capability of serum albumins to bind to aromatic and heterocyclic compounds is largely dependent on the existence of two major binding regions, namely site-I and site-II [25]. Warfarin and ibuprofen are fluorescence probes whose primary binding sites to BSA are site-I and site-II, respectively.
To identify the binding sites of EGCG and TMCG in BSA, the displacements of warfarin and ibuprofen (known to bind at site I and site II, respectively) were followed fluorometrically. Equimolar solutions of BSA and warfarin (5 × 10^−6 M each) were mixed for 1 h and titrated with EGCG and TMCG in separate experiments. Similar solutions containing equimolar ibuprofen and BSA were prepared and separately titrated with EGCG and TMCG to identify the binding sites of EGCG and TMCG with BSA. Titration was followed fluorometrically using an excitation wavelength of 280 nm.

[7] = Table 2, restates Table 1, read-out: KD, order of binding strengths to rHDHFR depending on D-ring substitution
[8] = pH 7.5, 25 °C, fluorescence titration, read-out: Dissociation constant KD of free rHDHFR
[9] = determined as for BSA binding studies, read-out: Binding affinity to HSA (KA) (converted)

Row | Compound | IC50 ([1]; Homo sapiens, SK-MEL-28, 144 h) [nM] | Kd [2, 7] [nM] | Kd [2, 8] [nM] | Effect of pH on absorption spectra [3] | melting point [°C] | other results
1 | O=C(O[C@H]1Cc2c(O)cc(O)cc2O[C@@H]1c1ccc(O)c(O)c1)c1cc(O)c(O)c(O)c1 [CG, catechin-3-gallate, reference compound] | 82200 ± 8000 | 560 | 560 ± 70 |  |  | 
2 | COc1cc(C(=O)O[C@@H]2Cc3c(O)cc(O)cc3O[C@@H]2c2ccc(O)c(O)c2)cc(OC)c1OC [TMECG] | 2500 ± 600 | 2100 | 2100 ± 200 | no significant changes |  | Kd [4, 9]: 23800 nM
3 | COc1cc(C(=O)O[C@H]2Cc3c(OC(C)=O)cc(OC(C)=O)cc3O[C@@H]2c2ccc(OC(C)=O)c(OC(C)=O)c2)cc(OC)c1OC(C)=O [ASYCG, 5,7,3’,4’,4’’-penta-O-acetyl-3-O-(3,5-dimethoxybenzoyl)-catechin] | 37400 ± 4000 |  |  |  | 88 to 93 | 
4 | O=C(O[C@@H]1Cc2c(O)cc(O)cc2O[C@@H]1c1cc(O)c(O)c(O)c1)c1cc(O)c(O)c(O)c1 [EGCG, epigallocatechin-3-gallate, reference compound] |  |  |  |  |  | Kd [5]: 64.9 nM; Number of binding sites n ([5]; catechin-BSA complex, double logarithmic plot): approximately 1; Kd ([6]; site marker: Blank): 64.9 nM; Kd ([6]; site marker: Ibuprofen): 82 nM; Kd ([6]; site marker: Warfarin): 7690 nM; Site selective binding to BSA ([6]; competition with warfarin (site-I) and ibuprofen (site-II)): higher specificity for site-I; Kd [4]: 3850 nM
5 | COc1cc(C(=O)OC2Cc3c(O)cc(O)cc3OC2c2ccc(O)c(O)c2)cc(OC)c1O (centres unmarked) [SYECG, 3-O-(4-hydroxy-3,5-dimethoxybenzoyl)-epicatechin] |  | 770 | 770 ± 70 | strongly affected by the pH | 120 to 123 | Ionization state at physiologic pH [3]: partially in their ionic form; IC50 [1]: 199000 ± 12000 nM
6 | O=C(O[C@@H]1Cc2c(O)cc(O)cc2O[C@@H]1c1ccc(O)c(O)c1)c1cc(O)c(O)c(O)c1 [ECG, epicatechin-3-gallate, reference compound] | > 100000 | 810 | 810 ± 90 |  |  | 
7 | COc1cc(C(=O)OC2Cc3c(O)cc(O)cc3OC2c2ccc(O)c(O)c2)cc(OC)c1O (centres unmarked) [SYCG, 3-O-(4-hydroxy-3,5-dimethoxybenzoyl)-catechin] | 126000 ± 10000 | 720 | 720 ± 100 | strongly affected by the pH | 110 to 114 | Ionization state at physiologic pH [3]: partially in their ionic form
8 | COc1cc(C(=O)O[C@H]2Cc3c(O)cc(O)cc3O[C@@H]2c2ccc(O)c(O)c2)cc(OC)c1OC(C)=O [MASYCG, 3-O-(4-acetoxy-3,5-dimethoxybenzoyl)-catechin] | 60900 ± 6000 |  |  |  | 118 to 122 | 
9 | Oc1cc(O)c2c(c1)O[C@H](c1ccc(O)c(O)c1)[C@H](O)C2 [EC, epicatechin] |  |  |  |  |  | Kd [4, 9]: 312000 nM
